In US20060135458A1, “Antiviral oligonucleotides” (priority 2002, published 2006):
In the oligonucleotide strings, read from the 5' end, every base follows the letter of its sugar. An asterisk marks phosphorothioate; unmarked linkages are phosphodiester. Other units and linkages are bracketed, terminal groups are in braces. A string of capitals states the bases alone. d = 2'-deoxy (DNA)

System: Bal 31
Parameters: key to the marks not given beside the values

With “REP 2029: A40 (polyA) PS-ON (DNA dA*dA*dA*dA*dA*dA*dA*dA*dA*dA*dA*dA*dA*dA*dA*dA*dA*dA*dA*dA*dA*dA*dA*dA*dA*dA*dA*dA*dA*dA*dA*dA*dA*dA*dA*dA*dA*dA*dA*dA)” the “Nuclease resistance, Bal 31” value was “++++”.
